Measured values: PubChem BioAssay AID2060340 (Molecular Pharmacology Branch, DTP, NCI, 2025)
Values joined by “and” are separate entries in the source; they are usually repeats but may differ in a detail not shown here. Equal values may be shown once.

Test system: 349418-098-R-PDC spheroids, viability, % test/control
Assay: Anticancer human tumor 349418-098-R-PDC patient-derived lung adenocarcinoma cell line growth inhibition [IpAb]
Settings: spheroids with HUVEC and MSC; for viability, T/C: stronger effect = lower value
Outline: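 Multi-cell spheroids of 60% tumour cells, 25% HUVEC and 15% MSC in ultra-low-attachment U-bottom wells, treated with agents combined with ipatasertib or abemaciclib. Half-log ranges top out near clinical Cmax, or 10 microM when Cmax is unknown.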

[1] = curve of first compound, second compound 0.1 µM
[2] = curve of first compound, second compound 0.316 µM
[3] = curve of first compound, second compound 1 µM
[4] = curve of first compound, second compound 3.16 µM
[5] = curve of first compound, second compound 10 µM
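Also: spheroids exposed to compounds for 7 days.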

CC(C)(C)c1cnc(CSc2cnc(NC(=O)C3CCNCC3)s2)o1 + CC(C)NCC(C(=O)N1CCN(c2ncnc3c2C(C)CC3O)CC1)c1ccc(Cl)cc1
IC50 [1]: 40.6 nM | IC50 [2]: < 9.49 nM | IC50 [3]: < 9.49 nM | IC50 [4]: < 9.49 nM | IC50 [5]: < 9.49 nM | viability, T/C (second compound 0.1 µM, first compound 0.00949 µM): 88.9% | viability, T/C (second compound 0.1 µM, first compound 0.03 µM): 65.3% | viability, T/C (second compound 0.1 µM, first compound 0.0949 µM): 6.84% | viability, T/C (second compound 0.1 µM, first compound 0.3 µM): 2.85% | viability, T/C (second compound 0.1 µM, first compound 0.949 µM): 2.98% | viability, T/C (second compound 0.1 µM, first compound 3 µM): 2.15% | viability, T/C (second compound 0.316 µM, first compound 0.00949 µM): 45.6% | viability, T/C (second compound 0.316 µM, first compound 0.03 µM): 31.9% | viability, T/C (second compound 0.316 µM, first compound 0.0949 µM): 5.43% | viability, T/C (second compound 0.316 µM, first compound 0.3 µM): 2.19% | viability, T/C (second compound 0.316 µM, first compound 0.949 µM): 2.77% | viability, T/C (second compound 0.316 µM, first compound 3 µM): 1.75% | viability, T/C (second compound 1 µM, first compound 0.00949 µM): 22.1% | viability, T/C (second compound 1 µM, first compound 0.03 µM): 15.5% | viability, T/C (second compound 1 µM, first compound 0.0949 µM): 3.25% | viability, T/C (second compound 1 µM, first compound 0.3 µM): 2.27% | viability, T/C (second compound 1 µM, first compound 0.949 µM): 2.58% | viability, T/C (second compound 1 µM, first compound 3 µM): 2.1% | viability, T/C (second compound 3.16 µM, first compound 0.00949 µM): 9.45% | viability, T/C (second compound 3.16 µM, first compound 0.03 µM): 8.27% | viability, T/C (second compound 3.16 µM, first compound 0.0949 µM): 3.2% | viability, T/C (second compound 3.16 µM, first compound 0.3 µM): 2.2% | viability, T/C (second compound 3.16 µM, first compound 0.949 µM): 2.72% | viability, T/C (second compound 3.16 µM, first compound 3 µM): 2.4% | viability, T/C (second compound 10 µM, first compound 0.00949 µM): 5.95% | viability, T/C (second compound 10 µM, first compound 0.03 µM): 5.37% | viability, T/C (second compound 10 µM, first compound 0.0949 µM): 2.11% | viability, T/C (second compound 10 µM, first compound 0.3 µM): 1.93% | viability, T/C (second compound 10 µM, first compound 0.949 µM): 2.03% | viability, T/C (second compound 10 µM, first compound 3 µM): 1.53%

C=CCn1c(=O)c2cnc(Nc3ccc(N4CCN(C)CC4)cc3)nc2n1-c1cccc(C(C)(C)O)n1 + CC(C)NCC(C(=O)N1CCN(c2ncnc3c2C(C)CC3O)CC1)c1ccc(Cl)cc1
IC50 [1]: 154 nM | IC50 [2]: 84.5 nM | IC50 [3]: < 31.6 nM | IC50 [4]: < 31.6 nM | IC50 [5]: < 31.6 nM | viability, T/C (second compound 0.1 µM, first compound 0.0316 µM): 96.2% | viability, T/C (second compound 0.1 µM, first compound 0.1 µM): 73% | viability, T/C (second compound 0.1 µM, first compound 0.316 µM): 11.5% | viability, T/C (second compound 0.1 µM, first compound 1 µM): 4.54% | viability, T/C (second compound 0.1 µM, first compound 3.16 µM): 4.88% | viability, T/C (second compound 0.1 µM, first compound 10 µM): 5.17% | viability, T/C (second compound 0.316 µM, first compound 0.0316 µM): 82% | viability, T/C (second compound 0.316 µM, first compound 0.1 µM): 44.5% | viability, T/C (second compound 0.316 µM, first compound 0.316 µM): 7.25% | viability, T/C (second compound 0.316 µM, first compound 1 µM): 4.35% | viability, T/C (second compound 0.316 µM, first compound 3.16 µM): 4.32% | viability, T/C (second compound 0.316 µM, first compound 10 µM): 4.08% | viability, T/C (second compound 1 µM, first compound 0.0316 µM): 29.7% | viability, T/C (second compound 1 µM, first compound 0.1 µM): 22.2% | viability, T/C (second compound 1 µM, first compound 0.316 µM): 5.45% | viability, T/C (second compound 1 µM, first compound 1 µM): 3.39% | viability, T/C (second compound 1 µM, first compound 3.16 µM): 3.96% | viability, T/C (second compound 1 µM, first compound 10 µM): 3.54% | viability, T/C (second compound 3.16 µM, first compound 0.0316 µM): 15.3% | viability, T/C (second compound 3.16 µM, first compound 0.1 µM): 12.3% | viability, T/C (second compound 3.16 µM, first compound 0.316 µM): 4.49% | viability, T/C (second compound 3.16 µM, first compound 1 µM): 2.96% | viability, T/C (second compound 3.16 µM, first compound 3.16 µM): 3.95% | viability, T/C (second compound 3.16 µM, first compound 10 µM): 3.35% | viability, T/C (second compound 10 µM, first compound 0.0316 µM): 9.2% | viability, T/C (second compound 10 µM, first compound 0.1 µM): 7.89% | viability, T/C (second compound 10 µM, first compound 0.316 µM): 4.37% | viability, T/C (second compound 10 µM, first compound 1 µM): 2.99% | viability, T/C (second compound 10 µM, first compound 3.16 µM): 3.49% | viability, T/C (second compound 10 µM, first compound 10 µM): 3.4%

Cn1ncc(Cl)c1-c1cc(C(=O)NC(CN)Cc2cccc(F)c2)sc1Cl (configuration not stated)
viability, T/C (compound 0.0316 µM): 90% and 71.9% | viability, T/C (compound 0.1 µM): 64.6% and 67% | viability, T/C (compound 0.316 µM): 43% and 30.5% | viability, T/C (compound 1 µM): 10.9% and 16.7% | viability, T/C (compound 3.16 µM): 7.08% and 7.12% | viability, T/C (compound 10 µM): 0.13% and 0.32% | IC50 (curve of compound): 200 nM and 169 nM
